US12497403B2, “Factor XIa inhibitors” (Merck Sharp & Dohme LLC, priority 2021, dated 2025)
Values after ≈ are worked out from the molar mass of the structure shown. Read-outs that look alike come from different tables or passages of the source.

How the values were obtained:
human tissue kallikrein = molecular target: T1, human tissue kallikrein (Homo sapiens, UniProt P06870); assay: Inhibition of tissue kallikrein enzymatic activity; format: biochemical; conditions: human tissue kallikrein 5 nM, N-acetyl-KPR-AFC substrate, 25° C., pH 7.4; read-out: tKal IC50
T1 construct: purchased Ray Biotech or Evotec 228-10996
T1 sequence (P06870 25-262): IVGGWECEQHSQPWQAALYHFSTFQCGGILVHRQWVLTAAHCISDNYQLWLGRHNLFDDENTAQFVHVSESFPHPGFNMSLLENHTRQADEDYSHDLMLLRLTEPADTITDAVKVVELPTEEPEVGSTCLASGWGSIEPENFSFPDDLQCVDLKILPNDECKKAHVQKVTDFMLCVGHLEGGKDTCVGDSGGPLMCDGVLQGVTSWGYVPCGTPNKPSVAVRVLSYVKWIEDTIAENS
Procedure: Compounds were assayed with human tissue kallikrein (Ray Biotech, Cat # 228-10996 or Evotec, final concentration 5 nM) in 50 mM HEPES, 150 mM NaCl, 5 mM CaCl2, 0.1% PEG-8000, pH 7.4 at 25° C. in a Corning 3575 non-binding surface microplate. Compounds were tested in 10-point dose titrations starting at 166.67 uM with a 3-fold dilution series. Tissue kallikrein enzymatic activity was determined by measuring the rate of cleavage of N-acetyl-KPR-AFC substrate (Sigma, Cat # C6608, final concentration 100 uM) by continuously monitoring the fluorescence at 400/505 nm using a Tecan Safire plate-reader. The initial reaction rates (0) to 20 minutes) were used to determine percent inhibition. The % Inhibition for each data point was recalculated from the RFU/min data and analyzed using the log(inhibitor) vs. response four parameters equation with the GraphPad Prism software.

Human plasma kallikrein = molecular target: T2, Human plasma kallikrein (Homo sapiens, UniProt P03952); assay: Kallikrein assay (plasma kallikrein); format: biochemical; conditions: purified Human plasma kallikrein 0.5 nM, Acetyl-K-P-R-AFC substrate, pH 7.4; read-out: pKal IC50
T2 construct: yields a heavy chain (371 amino acids) and a light chain (248 amino acids); purchased Enzyme Research Laboratories
T2 sequence (P03952 391-638 limits assumed): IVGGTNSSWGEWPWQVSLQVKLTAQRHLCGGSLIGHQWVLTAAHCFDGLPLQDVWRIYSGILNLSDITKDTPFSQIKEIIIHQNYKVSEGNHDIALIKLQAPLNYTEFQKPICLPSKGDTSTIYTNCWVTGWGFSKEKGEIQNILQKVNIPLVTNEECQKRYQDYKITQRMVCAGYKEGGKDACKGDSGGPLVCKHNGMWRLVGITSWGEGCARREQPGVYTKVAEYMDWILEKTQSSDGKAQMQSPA
T2 sequence (P03952 20-390 partner limits assumed): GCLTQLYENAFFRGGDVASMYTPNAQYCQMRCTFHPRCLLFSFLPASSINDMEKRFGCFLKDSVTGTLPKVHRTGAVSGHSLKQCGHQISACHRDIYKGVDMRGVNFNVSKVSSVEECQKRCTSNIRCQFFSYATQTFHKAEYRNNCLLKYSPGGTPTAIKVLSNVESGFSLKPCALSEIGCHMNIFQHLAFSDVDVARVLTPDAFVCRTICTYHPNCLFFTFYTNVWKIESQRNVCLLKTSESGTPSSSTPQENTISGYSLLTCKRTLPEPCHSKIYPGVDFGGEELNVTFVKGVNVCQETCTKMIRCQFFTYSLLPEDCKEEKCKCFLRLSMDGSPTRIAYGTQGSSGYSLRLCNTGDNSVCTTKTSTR
Procedure: The effectiveness of a compound of the present invention as an inhibitor of Kallikrein can be determined using a relevant purified serine protease, and an appropriate synthetic substrate. The rate of hydrolysis of the chromogenic or fluorogenic substrate by the relevant serine protease was measured both in the absence and presence of compounds of the present invention. Assays were conducted at room temperature or at 37° C. […] A decrease in the rate of fluorescence change in the presence of inhibitor is indicative of enzyme inhibition. Such methods are known to one skilled in the art. The results of this assay are expressed as the half-maximal inhibitory concentrations (IC50), or the inhibitory constant. Ki.
Kallikrein determinations were made in 50 mM HEPES buffer at pH 7.4 containing 150 mM NaCl, 5 mM CaCl2, and 0.1% PEG 8000 (polyethylene glycol; Fisher Scientific). Determinations were made using purified Human plasma kallikrein at a final concentration of 0.5 nM (Enzyme Research Laboratories) and the synthetic substrate. Acetyl-K-P-R-AFC (Sigma # C6608) at a concentration of […].
Activity assays were performed by diluting a stock solution of substrate at least tenfold to a final concentration≤ 0.2 Km into a solution containing enzyme or enzyme equilibrated with inhibitor. Times required to achieve equilibration between enzyme and inhibitor were determined in control experiments. The reactions were performed under linear progress curve conditions and fluorescence increase measured at 405 Ex/510 Em nm. Values were converted to percent inhibition of the control reaction (after subtracting 100% Inhibition value). IC50 was determined by inflection point from a four parameter logistic curve fit. Ki was calculated using the Cheng Prusoff equation. Ki=IC50/(1+([S]/Km)).

[1] = molecular target: T3, Human Norepinephrine Transporter (NET) (Homo sapiens, UniProt P23975); assay: Norepinephrine Transporter functional antagonist uptake assay; format: cell-based; conditions: [3H]Norepinephrine uptake, human recombinant NET in MDCK cells
T3 construct: host or cells: MDCK cells
T3 sequence (P23975 whole entry): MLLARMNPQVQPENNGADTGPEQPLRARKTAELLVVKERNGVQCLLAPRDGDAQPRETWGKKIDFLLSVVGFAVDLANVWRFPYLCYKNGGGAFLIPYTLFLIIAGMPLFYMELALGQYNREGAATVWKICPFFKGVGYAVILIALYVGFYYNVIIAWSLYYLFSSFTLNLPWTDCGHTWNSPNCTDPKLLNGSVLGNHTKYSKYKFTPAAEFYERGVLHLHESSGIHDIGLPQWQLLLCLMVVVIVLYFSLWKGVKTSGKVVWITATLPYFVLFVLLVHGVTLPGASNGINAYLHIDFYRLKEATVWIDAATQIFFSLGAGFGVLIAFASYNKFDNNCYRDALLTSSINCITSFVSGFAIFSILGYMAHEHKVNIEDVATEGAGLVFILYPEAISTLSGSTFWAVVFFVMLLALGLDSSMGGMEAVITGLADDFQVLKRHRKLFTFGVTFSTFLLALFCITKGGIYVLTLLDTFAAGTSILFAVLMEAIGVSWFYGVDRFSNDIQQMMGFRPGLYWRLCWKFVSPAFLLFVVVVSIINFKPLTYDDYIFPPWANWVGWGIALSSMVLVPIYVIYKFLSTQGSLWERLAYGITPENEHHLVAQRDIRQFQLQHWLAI
Procedure: Human Norepinephrine Transporter (NET) Functional Antagonist Uptake Assay was carried out at Panlabs Cerep (assay#302100). Human recombinant norepinephrine transporter expressed in MDCK cells were plated overnight. Test compound and/or vehicle was pre-incubated with cells (2×10E5/ml) in modified Tris-HEPES buffer pH 7.1 for 20 minutes at 25° C. and 25 nM [3H]Norepinephrine was then added for an additional 15 minute incubation period. A lysate was obtained from solubilized cells and counted to determine [3H]Norepinephrine uptake. Reduction of [3H]Norepinephrine uptake by 50 percent or more (≥50%) relative to 10 μM desipramine indicates significant inhibitory activity. Compounds are screened at 10, 3, 1, 0.3, 0.1, 0.03, 0.01 and 0.003 μM. These same concentrations are concurrently applied to a separate group of untreated cells and evaluated for possible compound-induced cytotoxicity only if significant inhibition of uptake is observed. IC50 values were determined by a non-linear, least squares regression analysis using MathIQTM (IDBusiness Solutions Ltd., UK).

[2] = High-throughput (HT) solubility determination; format: physicochemical; conditions: kinetic from dmso stock
Procedure: The chromatographic system consists of an Agilent 1290 UPLC/DAD system and ChemStation software, both from Agilent Technologies, USA. The separations are carried out on a Supelco Ascentis Express C18, 30 mm×3.0 mm I.D., 2.7 μm HPLC column. The mobile phase consists of Potassium phosphate buffered at pH 7 (mobile phase A) and acetonitrile (mobile phase B). The column oven temperature is set to 30° C. and the UPLC analysis consists of a gradient. The injection volume is 2 μL and the spectrophotometric detection is set to 215 and 238 nm.
A 10 mM stock solution of the compound in DMSO is supplied for analysis. 2.5 μL of stock solution (10 mM) was diluted into 247.5 μL of organic co-solvents (10% MeCN/80% MeOH/10% DMSO, v/v/v) to create a standard solution of 100 μM. To create the solubility solutions, 4.1 μL of 10 mM DMSO stock solution was diluted into […] of phosphate buffered saline (PBS) (pH 7) solution. A second 4.1 μL aliquot of 10 mM DMSO stock solution was added to 196 μL of PBS (pH 2) solution. A third 4.1 uL aliquot of 10 mM DMSO stock solution was added to 196 uL of FaSSIF (pH 6.5) solution. […] The equilibrated solubility solutions were filtered by centrifugation using a filter (0.45 μm, polypropylene). 50 μL each of the 100 μM standard solution and the filtered equilibrated solubility solutions were placed into a 384 well plate, and the plate was subsequently heat sealed.
Each standard and solubility solution was analyzed by UPLC/DAD. The solubility value was calculated by the following equation: Solubility=(Peak area of sample/Peak area of standard) (Standard concentration)

[3] = FaSSIF pH 6.5, shaken 24 hours at 25° C., read-out: pH 6.5 (FaSSIF) solubility
[4] = phosphate buffered saline (PBS) pH 2, aqueous buffer, PBS pH 2, shaken 24 hours at 25° C., read-out: pH 2 solubility

| IC50 (human tissue kallikrein) | IC50 (Human plasma kallikrein) | IC50 [1] | solubility kinetic at 24 h [2, 3] | solubility kinetic at 24 h [2, 4] | Compound |
| --- | --- | --- | --- | --- | --- |
| > 167000 nM | 11 nM | > 10000 nM | 27 µM (≈ 20.7 µg/mL) | 104 µM (≈ 79.7 µg/mL) | CCOC(=O)c1[nH]c2nc1-c1ccc(NC(=O)OC)cc1NC(=O)C(C)(C)CCC[C@@H]2c1ccc(-c2cc(Cl)ccc2-n2cc(C(F)(F)F)cn2)c[n+]1[O-] [Example 2, (R,Z)-5-(5-chloro-2-(4-(trifluoromethyl)-1H-pyrazol-1-yl)phenyl)-2-(1^5-(ethoxycarbonyl)-2^4-((methoxycarbonyl)amino)-5,5-dimethyl-4-oxo-1^1H-3-aza-1(4,2)-imidazola-2(1,2)-benzenacyclononaphane-9-yl)pyridine 1-oxide] |
| > 167000 nM | 104 nM | > 10000 nM | 33 µM (≈ 23.1 µg/mL) | 137 µM (≈ 95.8 µg/mL) | CCOC(=O)c1[nH]c2nc1-c1ccc(NC(=O)OC)cc1NC(=O)C(C)(C)CCC[C@@H]2c1ccc(-c2cc(Cl)cnc2OC(F)F)c[n+]1[O-] [Example 4, (R,Z)-5′-chloro-2′-(difluoromethoxy)-6-(1^5-(ethoxycarbonyl)-2^4-((methoxycarbonyl)amino)-5,5-dimethyl-4-oxo-1^1H-3-aza-1(4,2)-imidazola-2(1,2)-benzenacyclononaphane-9-yl)-[3,3′-bipyridine] 1-oxide] |
| > 167000 nM | 122 nM | > 10000 nM | 64 µM (≈ 47.1 µg/mL) | 163 µM (≈ 120 µg/mL) | COC(=O)Nc1ccc2c(c1)NC(=O)C(C)(C)CCC[C@H](c1ccc(-c3cc(F)ccc3-n3cc(C(F)(F)F)cn3)c[n+]1[O-])c1nc-2c(C(=O)OC)[nH]1 [Example 6, (R,Z)-5-(5-fluoro-2-(4-(trifluoromethyl)-1H-pyrazol-1-yl)phenyl)-2-(1^5-(methoxycarbonyl)-2^4-((methoxycarbonyl)amino)-5,5-dimethyl-4-oxo-1^1H-3-aza-1(4,2)-imidazola-2(1,2)-benzenacyclononaphane-9-yl)pyridine 1-oxide] |
| 886 nM | 1.4 nM | > 10000 nM | 40 µM (≈ 27.3 µg/mL) | 171 µM (≈ 117 µg/mL) | CCOC(=O)c1[nH]c2nc1-c1ccc(NC(=O)OC)cc1NC(=O)C(C)(C)CCC[C@@H]2c1ccc(-c2cc(F)ccc2OC(F)F)c[n+]1[O-] [Example 3, (R,Z)-5-(2-(difluoromethoxy)-5-fluorophenyl)-2-(1^5-(ethoxycarbonyl)-2^4-((methoxycarbonyl)amino)-5,5-dimethyl-4-oxo-1^1H-3-aza-1(4,2)-imidazola-2(1,2)-benzenacyclononaphane-9-yl)pyridine 1-oxide] |
| > 167000 nM | 119 nM | > 10000 nM | 39 µM (≈ 29.2 µg/mL) | 147 µM (≈ 110 µg/mL) | CCOC(=O)c1[nH]c2nc1-c1ccc(NC(=O)OC)cc1NC(=O)C(C)(C)CCC[C@@H]2c1ccc(-c2cc(F)ccc2-n2cc(C(F)(F)F)cn2)c[n+]1[O-] [Example 1, (R,Z)-2-(1^5-(ethoxycarbonyl)-2^4-((methoxycarbonyl)amino)-5,5-dimethyl-4-oxo-1^1H-3-aza-1(4,2)-imidazola-2(1,2)-benzenacyclononaphane-9-yl)-5-(5-fluoro-2-(4-(trifluoromethyl)-1H-pyrazol-1-yl)phenyl)pyridine 1-oxide] |
| 15000 nM | 0.49 nM | > 10000 nM | 51 µM (≈ 33.2 µg/mL) | 108 µM (≈ 70.2 µg/mL) | CCOC(=O)c1[nH]c2nc1-c1ccc(NC(=O)OC)cc1NC(=O)C(C)(C)CCC[C@@H]2c1ccc(-c2cccc(Cl)c2F)c[n+]1[O-] [Example 5, (R,Z)-5-(3-chloro-2-fluorophenyl)-2-(1^5-(ethoxycarbonyl)-2^4-((methoxycarbonyl)amino)-5,5-dimethyl-4-oxo-1^1H-3-aza-1(4,2)-imidazola-2(1,2)-benzenacyclononaphane-9-yl)pyridine 1-oxide] |
